# In ChEMBL document CHEMBL3507680, “University of Dundee, Gates Library screen for HepG2 cell viability”:
# Test: Human HepG2 cell viability assay in 384 well format
# Type: toxicity, cell-based
# Parameters: dose 125 nL, time 70.5 hour; concentration not given beside the values
# Conditions: HepG2 cells, read-out: Inhibition
row,Compound,cytotoxicity at 70.5 h
1,COCCC1COC2(CCN(C(=O)Cc3ccccc3)CC2)C1 (stereo unspecified),-13.5%
2,Nc1nc(CNc2nccc(CCC(F)(F)F)n2)cs1,-7.96%
3,CS(=O)(=O)N[C@@H]1CN(Cc2ccoc2)C[C@@H]2CCCO[C@@H]21,-8.39%
4,O=C(NCCc1cccs1)C1(N2CCCCC2)Cc2ccccc2C1,-7.46%
5,Cn1nc(C2CCNCC2)c2c(C(=O)NC3CC3)cc(C3CC3)nc21,15%
6,C[C@H](O)CNC(=O)c1cnc(-c2ccccc2)nc1O,-4.5%
7,CN1CCOC(CNCc2coc(-c3cccc(F)c3)n2)C1 (stereo unspecified),36.2%
8,O=C(c1ccccn1)N1CCC2(CCCN(c3nncs3)C2)C1 (stereo unspecified),-9.42%
9,N#Cc1cccc(N2CCC3(CC2)Nc2ccccc2NC3=O)n1,-5.8%
10,O=C(O)[C@@H]1CN(Cc2cc3c(cc2Cl)OCO3)C[C@H]1C1CC1,-1.73%
11,O=C(Nc1ccccc1N1CCOC1=O)N1CCSCC1,14.3%
12,COCCn1c(-c2cccc(OC)c2)cnc1NC(=O)NCC(C)C,-18.3%
13,CNC(=O)c1ccc(NC(=O)NC(C)c2cc(C)oc2C)c(C)c1 (stereo unspecified),-5.7%
14,O=C1CN(CC2CC2)Cc2nc(NCc3ccccc3)sc21,20.7%
15,COCCCN(Cc1cnc(C2CCCCC2)nc1)C1CCN(C)CC1,-16.3%
16,COCc1nc(CNc2cc(C)nc(-c3ccccc3)n2)no1,-8.75%
17,O=C(NCCS(=O)(=O)N1CCN(c2ncccn2)CC1)C1CC1,16.5%
18,CN(Cc1nccs1)C1CCN(c2cccc(-c3cscn3)c2)CC1,10.5%
19,CSc1ccc(-c2nc(CN3C[C@@H](C)NC[C@@H]3C)c(C)o2)cc1,-4.1%
20,Cc1ccc(CN2CCOC3(CCN(C(=O)C4CC=CC4)CC3)C2)cc1,-2.99%
21,CO[C@H]1CCN(C(=O)c2cc(C)on2)C[C@@H]1Cc1ccccc1,5.73%

row,Compound,cytotoxicity at 70.5 h
1,CCOCC1c2c(ncn2C(C)C)CCN1C(=O)CC (stereo unspecified),7.88%
2,c1cnn(CC2CN(Cc3nc(-c4ccoc4)no3)CCO2)c1 (stereo unspecified),24.3%
3,CCC1(CC)C(=O)NC(=O)N/C1=N/c1cccc(OC)c1,26.5%
4,O=C(NC1CC1)C1CCc2nnc(C3CC3)n21 (stereo unspecified),-10.1%
5,Cc1ccc(S(=O)(=O)NC(=O)CCOCc2ccccc2)s1,-10.6%
6,COc1ccc(CN(Cc2cnn(C)c2)CC(C)C)cn1,-6.19%
7,CC(C(=O)O)n1nc(C(F)(F)F)c(Cl)c1C1CC1 (stereo unspecified),5.37%
8,CCn1cnnc1CNC(=O)N1CCN(c2cccc(C)c2)CC1,-7.02%
9,COc1c(Cl)cc(C(=O)NCCNc2ncccn2)cc1Cl,20.5%
10,CC(C)(C)c1nnc(CN2CCCC2Cn2cncn2)o1 (stereo unspecified),-11.3%
11,O=C(c1n[nH]c2c1CCC2)N1CCCC1c1nc(-c2ccccn2)no1 (stereo unspecified),-3.03%
12,Cc1ccc(OC2(C(=O)O)CCN(C(=O)c3nc(C)oc3C)CC2)cn1,-7.82%
13,O=c1[nH]c2ccccc2cc1CN(Cc1ccccn1)CC1CCCO1 (stereo unspecified),-4.2%
14,CNc1nc(C(=O)N2CCn3nc(C(=O)OC)cc3C2)cs1,-4.4%
15,Cc1c(C(=O)NCC2CCS(=O)(=O)C2)cnn1-c1ccccc1 (stereo unspecified),-1.52%
16,CC(C)CCC(=O)N1CCN(c2ncnc3nc(N)ccc23)CC1,-6.9%
17,Cc1ccc(S(=O)(=O)NC2CNC(=O)C2)cc1C (stereo unspecified),0.672%
18,O=C(NC1CC1)[C@H]1CN(Cc2ccc3c(c2)OCO3)C[C@H]2OCC[C@@H]12,-1.23%
19,Cc1[nH]c(=O)[nH]c(=O)c1CC(=O)N1CCC(Oc2ccc(F)cc2)CC1,-12.2%
20,COc1c(C(=O)N2CCOC(c3cccs3)C2)c(C)nn1C (stereo unspecified),-5.91%
21,Cc1noc(CCCC(=O)NC(C)c2ccc(Cl)s2)n1 (stereo unspecified),-7.88%

row,Compound,cytotoxicity at 70.5 h
1,FC(F)(F)c1cc(N2CCc3ncnc(NC4CC4)c3CC2)ncn1,5.67%
2,CCC1COCCN1C(=O)CNC(=O)c1ccc2c(c1)CCC2 (stereo unspecified),37.1%
3,NS(=O)(=O)CCNC(=O)c1nnn(-c2ccc(F)cc2)c1C1CC1,-2.85%
4,N#Cc1cc2c(nc1O)CCCCC2,-2.17%
5,Fc1ccc(C2(CNC3=NCCCN3)CCC2)cc1,-0.346%
6,Cc1nc(C)n(CC2CCCN2CCOc2ccccc2F)n1 (stereo unspecified),-3.47%
7,CC(C)(O)CN1CCN(C(=O)COC2CCCCC2)CC1,1.44%
8,Cc1cccc(S(=O)(=O)N2C[C@H]3C[C@H](C(=O)NCC(C)C)[C@@H](C2)O3)c1,25.7%
9,CN1CC(=O)N(c2ccccc2)CC12CCN(C(=O)c1cnccn1)C2 (stereo unspecified),22.8%
10,COc1cccnc1NC(=O)COc1ccc(F)cc1F,-6.39%
11,COC(=O)c1ccc(Cn2nc(C)cc2C)cc1,12.9%
12,CN1CCC(N(C)c2ccccc2CNCc2ccco2)CC1,30.3%
13,Cc1nc2c(cc1C(=O)O)CCN(Cc1ccsc1)CC2,-6.12%
14,CCC(=O)N1CCCCC1c1nc(O)c2c(n1)CN(C(C)=O)CC2 (stereo unspecified),-2.47%
15,Cc1cnn(CC2CN(Cc3cccc(C(N)=O)c3)CCO2)c1 (stereo unspecified),-9.19%
16,Cc1cc(C(F)(F)F)nn1CCNC(=O)C(C)n1ccnc1C(C)C (stereo unspecified),10.3%
17,O=S(=O)(C1CC1)N1CCc2ncnc(-c3ccc(F)cc3)c2CC1,0.906%
18,Cc1[nH]ncc1C(=O)N1CCCC(n2cncn2)C1 (stereo unspecified),-1.06%
19,Cc1cnn(CC(=O)NC2CCCc3cc(OC(F)F)ccc32)c1 (stereo unspecified),-6.6%
20,COCCOc1ccc(NC(=O)C2CC(=O)N(C(C)C)C2)cn1 (stereo unspecified),-4.64%
21,CCC(C(=O)NCc1ccn(-c2ccc(F)cc2)n1)N1CCCC1=O (stereo unspecified),5.43%

row,Compound,cytotoxicity at 70.5 h
1,Cc1cnn(CC2CN(Cc3nc4ccccc4n3C)CCO2)c1 (stereo unspecified),9.31%
2,COC1CCN(c2ccc(F)cc2CN(C)CC(N)=O)CC1,-4.87%
3,NC(=O)C1CCN(Cc2cc3c(cc2Br)OCCO3)C1 (stereo unspecified),-1.46%
4,Cc1ccc(NC2CCN(C(=O)Cc3c(C)noc3C)CC2)nn1,-2.99%
5,COc1ccccc1OC1CN(C(=O)CN(C)Cc2ccncc2)C1,-14.2%
6,O=C(c1cccc(-c2ccc(F)cc2)c1)N1CCC2(CC1)[C@H](O)C[C@@H]2O,-9.07%
7,CNC(=O)C(C)NC(=O)c1ccc(Oc2cccnc2)cc1 (stereo unspecified),-10.1%
8,O=c1oc2ccccc2n1CCN(CC1CCOC1)C1CC1 (stereo unspecified),-11.1%
9,CN(Cc1ccco1)C(=O)CN1CCOC(Cn2cccn2)C1 (stereo unspecified),-1.5%
10,CNC(=O)[C@H]1C[C@@H]2CN(C(=O)c3occc3C)C[C@@H]2N1S(C)(=O)=O,-5.67%
11,Cc1ccc(N2CC[C@H]3C[C@H](C(=O)NCc4ccco4)O[C@H]3C2)nn1,-11.1%
12,N#Cc1cccc(N2CCC3(CCC(=O)N(CC4CCCO4)C3)CC2)n1 (stereo unspecified),0.613%
13,CC[C@H]1CN(S(=O)(=O)c2ccc(OC)cc2)CC[C@H]1CC(=O)O,-9.14%
14,Cc1ccc2nc(CN3CCC(O)(CN4CCCC4)CC3)cc(O)c2c1,-7.1%
15,COCCN(C)CC(=O)N1CCCC2(CCC(=O)N(CC3CC3)C2)C1 (stereo unspecified),-27.5%
16,OC1(c2ccc(F)cc2)CCN(Cc2ccccc2N2CCCC2)CC1,52.6%
17,CC(Cc1cncs1)Nc1ncnc2cccc(F)c12 (stereo unspecified),1.5%
18,CCS(=O)(=O)NCc1nc(C)cc(N2CCCC2)n1,19.2%
